Data: US9988373B2, “Nitrogen-containing six-membered cyclic derivatives and pharmaceutical composition comprising the same” (SHIONOGI & CO., LTD., priority 2013, dated 2018)

These molecules were tested against T1, human P2X7 receptor (Homo sapiens, UniProt Q99572, R270H) (assay: Evaluation of a human P2X7 receptor inhibitory activity (Yo-Pro uptake, BzATP stimulation, FLIPR TETRA)). Conditions: antagonistic activity for the human P2X7 receptor, 1321N1 cell transfected with the human P2X7 receptor gene, Yo-Pro fluorescence.
T1 construct: expressed in transfected cells
T1 sequence (Q99572 1-595 R270H): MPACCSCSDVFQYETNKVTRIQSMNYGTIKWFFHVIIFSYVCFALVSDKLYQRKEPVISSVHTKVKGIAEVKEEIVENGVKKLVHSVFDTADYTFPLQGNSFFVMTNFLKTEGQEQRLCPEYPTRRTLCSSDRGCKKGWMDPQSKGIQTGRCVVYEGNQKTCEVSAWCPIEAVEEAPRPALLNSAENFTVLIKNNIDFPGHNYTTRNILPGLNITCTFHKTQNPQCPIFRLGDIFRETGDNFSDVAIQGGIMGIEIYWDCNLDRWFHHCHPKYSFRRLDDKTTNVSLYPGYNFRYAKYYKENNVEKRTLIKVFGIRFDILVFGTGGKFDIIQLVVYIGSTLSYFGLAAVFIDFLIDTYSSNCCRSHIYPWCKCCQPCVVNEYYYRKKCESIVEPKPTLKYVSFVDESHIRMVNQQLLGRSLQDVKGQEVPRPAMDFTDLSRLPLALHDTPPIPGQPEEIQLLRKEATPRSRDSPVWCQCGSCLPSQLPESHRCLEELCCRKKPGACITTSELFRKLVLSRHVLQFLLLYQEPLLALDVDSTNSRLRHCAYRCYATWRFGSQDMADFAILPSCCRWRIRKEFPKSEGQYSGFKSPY
Type: cell-based
Description: Test Example 1 Evaluation of a Human P2X7 Receptor Inhibitory Activity
Stably expressing cell line (1321N1 cell transfected with the human P2X7 receptor gene (GenBank accession number NM_002562.5 including T606C and G952A SNP)) was used. The cells were seeded in a 384-well microtiter plate at a concentration of 8000 cells/well and cultured in the medium (10% fetal bovine serum, 25 mM HEPES, 1% penicillin and streptomycin in DMEM) for one day at 37° C. under 5% carbon dioxide atmosphere. After replacing with 20 μL of the HBSS buffer (20 mM HEPES. 55.6 mM D-glucose, 1×HBSS(−), pH 7.4-7.5), 15 μL of 17.3 μM Yo-Pro solution in the HBSS buffer was added. The plate was placed in high-throughput cellular screening system FLIPR TETRA (Molecullar Devices, LLC.) and 15 μL of 130 μM BzATP solution in the HBSS buffer was added. Measurement of fluorescence intensity by FLIPR TETRA was started. After eight minutes, 15 μL of DMSO solutions containing different concentrations of the compound of the present invention as prepared by dilution with the HBSS buffer were dispensed to each well through the built-in automatic dispenser, and the measurement of fluorescence intensity was continued for 20 minutes. The maximum fluorescence intensity without the compound of the present invention is calculated as 0% inhibition and the maximum fluorescence intensity when the reference compound was added is calculated as 100% inhibition. Changing values of fluorescence intensity by the compound of the present invention were calculated by difference between maximum and minimum fluorescence intensity for 20 minutes. Inhibition ratios (%) were calculated from the following equation:
[formula] IC50 was calculated using logistic approximation.

Row | IC50 | Structure (SMILES)
1 | 0.27 µM | Nc1cn(Cc2ccccc2)c(-c2cccc(C(F)(F)F)c2Cl)nc1=O [II-045]

Same assay, conditions: antagonistic activity for the human P2X7 receptor, 1321N1 cell transfected with the human P2X7 receptor gene, Yo-Pro fluorescence, class symbols

Row | Structure (SMILES) | IC50
2 | COc1cccc(Cn2ccc(=O)cc2-c2cccc(C(F)(F)F)c2Cl)n1 [Compound I-032] | 0.5 to 1 µM
3 | O=c1ccn(Cc2ccc(Cl)cc2)c(-c2cccc(C(F)(F)F)c2Cl)c1 [Compound I-041] | 1 to 10 µM
4 | O=c1ccn(Cc2cccc(F)c2)c(-c2cccc(C(F)(F)F)c2Cl)c1 [Compound I-027] | 0.5 to 1 µM
5 | COc1ccc(Cn2ccc(=O)cc2-c2cccc(C(F)(F)F)c2Cl)cc1 [Compound I-040] | 1 to 10 µM
6 | COc1ccccc1Cn1ccc(=O)cc1-c1cccc(C(F)(F)F)c1Cl [Compound I-071] | 0.1 to 0.5 µM
7 | O=c1ccn(Cc2ccc(OCc3ccccc3)cc2)c(-c2cccc(C(F)(F)F)c2Cl)c1 [Compound I-064] | 1 to 10 µM
8 | O=C(Nc1cn(Cc2ccccc2)c(-c2cccc(C(F)(F)F)c2Cl)nc1=O)OCC(F)(F)F [II-054] | 0.1 to 0.5 µM
9 | O=c1ccn(Cc2ccccc2CS(=O)(=O)c2ccccc2)c(-c2cccc(C(F)(F)F)c2Cl)c1 [Compound I-056] | 1 to 10 µM
10 | O=c1cc(-c2cccc(C(F)(F)F)c2Cl)n(Cc2ccccc2)cc1Br [Compound I-008] | 0.1 to 0.5 µM
11 | O=c1ccn(Cc2cccc3cccnc23)c(-c2cccc(C(F)(F)F)c2Cl)c1 [Compound I-044] | 0.5 to 1 µM
12 | CNc1cn(Cc2ccccc2)c(-c2cccc(C(F)(F)F)c2Cl)nc1=O [II-044] | 0.1 to 0.5 µM
13 | CN(C)CCOc1cn(Cc2ccccc2)c(-c2cccc(C(F)(F)F)c2Cl)nc1=O [II-028] | 0.5 to 1 µM
14 | CS(=O)(=O)c1ccc(Cn2ccc(=O)cc2-c2cccc(C(F)(F)F)c2Cl)cc1 [Compound I-060] | 1 to 10 µM
15 | N#CCn1cc(-c2ccccc2)c(=O)nc1-c1cccc(C(F)(F)F)c1Cl [II-050] | 0.1 to 0.5 µM
16 | N#CCNc1cn(Cc2ccccc2)c(-c2cccc(C(F)(F)F)c2Cl)nc1=O [II-043] | 0.05 to 0.1 µM
17 | N#Cc1ccccc1Cn1ccc(=O)cc1-c1cccc(C(F)(F)F)c1Cl [Compound I-023] | 0.5 to 1 µM
18 | O=c1ccn(Cc2ccccc2)c(-c2cccc(Cl)c2Cl)c1 [Compound I-021] | 0.5 to 1 µM
19 | Cc1cccc(Cn2ccc(=O)cc2-c2cccc(C(F)(F)F)c2Cl)c1 [Compound I-028] | 0.1 to 0.5 µM
20 | O=C(c1ccccc1)c1cccc(Cn2ccc(=O)cc2-c2cccc(C(F)(F)F)c2Cl)c1 [Compound I-069] | 0.5 to 1 µM
21 | O=c1ccn(Cc2ccccc2S(=O)(=O)N2CCOCC2)c(-c2cccc(C(F)(F)F)c2Cl)c1 [Compound I-026] | 1 to 10 µM
22 | O=c1ccn(Cc2cccc(Oc3ccccc3)c2)c(-c2cccc(C(F)(F)F)c2Cl)c1 [Compound I-036] | 0.5 to 1 µM
23 | CC(=O)COc1cn(Cc2ccccc2)c(-c2cccc(C(F)(F)F)c2Cl)nc1=O [II-034] | 0.05 to 0.1 µM
24 | O=c1ccn(Cc2nc(C(F)(F)F)cs2)c(-c2cccc(C(F)(F)F)c2Cl)c1 [Compound I-066] | 1 to 10 µM

Results, then the molecule that gave them:

Row | IC50 | Structure (SMILES)
25 | 1 to 10 µM | COc1cn(Cc2ccc(C#N)cc2)c(-c2cccc(C(F)(F)F)c2Cl)nc1=O [II-014]
26 | 0.1 to 0.5 µM | COc1cn(Cc2ccc(Cl)cc2)c(-c2cccc(C(F)(F)F)c2Cl)nc1=O [II-096]
27 | 0.5 to 1 µM | COc1cn(Cc2ccccc2)c(-c2cccc(F)c2F)nc1=O [II-078]
28 | 1 to 10 µM | COc1cccc(-c2nc(=O)c(OC)cn2Cc2ccccc2)c1Cl [II-079]
29 | < 0.05 µM | Cc1ccccc1Cn1cc(C)c(=O)nc1-c1cccc(C(F)(F)F)c1Cl [II-010]
30 | 0.05 to 0.1 µM | COc1cn(Cc2cccnc2C)c(-c2cccc(C(F)(F)F)c2Cl)nc1=O [II-026]
31 | 0.05 to 0.1 µM | COc1cn(C(C)c2ccccc2)c(-c2cccc(C(F)(F)F)c2Cl)nc1=O (stereo not drawn) [II-039]
32 | 1 to 10 µM | COc1cn(Cc2ccccc2C)c(-c2ccccc2F)nc1=O [II-061]
33 | < 0.05 µM | Cc1ccccc1Cn1cc(C#N)c(=O)nc1-c1cccc(C(F)(F)F)c1Cl [II-091]
34 | 1 to 10 µM | COc1cn(Cc2ccccc2C)c(-c2ccc(-c3ccccc3)cc2)nc1=O [II-067]
35 | 0.1 to 0.5 µM | Cc1ccccc1Cn1ccc(=O)cc1-c1cccc(Cl)c1Cl [Compound I-016]
36 | 0.1 to 0.5 µM | COc1cn(Cc2ccccc2SC(F)(F)F)c(-c2cccc(C(F)(F)F)c2Cl)nc1=O [II-098]
37 | 0.1 to 0.5 µM | COc1cn(Cc2cccc(C)c2)c(-c2cccc(C(F)(F)F)c2Cl)nc1=O [II-017]
38 | 0.05 to 0.1 µM | COc1cn(Cc2cccc(Cl)c2)c(-c2cccc(C(F)(F)F)c2Cl)nc1=O [II-100]
39 | < 0.05 µM | Cc1ccccc1Cn1cc(OCC(F)(F)F)c(=O)nc1-c1cccc(C(F)(F)F)c1Cl [II-089]
40 | 0.5 to 1 µM | COc1cn(Cc2ccc(C)cc2)c(-c2cccc(C(F)(F)F)c2Cl)nc1=O [II-016]
41 | 0.1 to 0.5 µM | COc1cn(Cc2ccccc2C#N)c(-c2cccc(C(F)(F)F)c2Cl)nc1=O [II-012]
42 | 1 to 10 µM | COc1cn(Cc2ccccc2C)c(-c2cccc(-c3ccccc3)c2)nc1=O [II-068]
